± gives the expanded uncertainty stated by the source.
Tests used:
[1] = 101.33 kPa, Liquid; for speed of sound: Single path-length method; for mass density: Vibrating tube method
[2] = refractive index (Na D-line) (dimensionless); conditions: 101.33 kPa, Liquid, Standard Abbe refractometry
[3] = refractive index (Na D-line) (dimensionless); wn = mass fraction of the nth substance listed; conditions: 298.15 K, 100 kPa, Liquid, Standard Abbe refractometry
[4] = wn = mass fraction of the nth substance listed; conditions: 298.15 K, 100 kPa, Liquid; for viscosity: Falling or rolling sphere viscometry; for speed of sound: Frequency=3 MHz, Single path-length method; for mass density: Vibrating tube method

CCCC(=O)[O-].CCCCCC[NH+](CCCCCC)CCCCCC [trihexylammonium butanoate]
viscosity [mPa·s], [1]
Conditions	Cone and plate viscometry	Falling or rolling sphere viscometry
293.15 K	–	13.26 ± 2
298.15 K	11.52 ± 4	10.91 ± 2
303.15 K	–	9.09 ± 2
308.15 K	–	7.66 ± 2
313.15 K	–	6.52 ± 2
318.15 K	–	5.6 ± 2
323.15 K	–	4.85 ± 2
328.15 K	–	4.24 ± 2
333.15 K	–	3.73
338.15 K	–	3.3
343.15 K	–	2.94

Conditions	mass density, [1] [kg/m3]	refractive index, [2]	speed of sound, [1] [m/s]
293.15 K	848.02 ± 4.1	1.4419 ± 0.0014	1345 ± 5.4
298.15 K	844.32 ± 4.1	1.44 ± 0.0014	1326.7 ± 5.4
303.15 K	840.63 ± 4.1	1.438 ± 0.0014	1308.6 ± 5.4
308.15 K	836.93 ± 4	1.4361 ± 0.0014	1290.7 ± 5.4
313.15 K	833.22 ± 4	1.4342 ± 0.0014	1273 ± 5.4
318.15 K	829.5 ± 4	1.4322 ± 0.0014	1255.5 ± 5.4
323.15 K	825.78 ± 4	1.4302 ± 0.0014	1238.1 ± 5.4
328.15 K	822.04 ± 4	1.4282 ± 0.0014	1221 ± 5.4
333.15 K	818.3 ± 3.9	1.4262 ± 0.0014	1204 ± 5.4
338.15 K	814.54 ± 3.9	1.4241 ± 0.0014	1187.3 ± 5.4
343.15 K	810.76 ± 3.9	1.4221 ± 0.0014	1171.3 ± 5.4

CCCCCC(=O)[O-].CCCCCC[NH+](CCCCCC)CCCCCC [trihexylammonium hexanoate]
viscosity [mPa·s], [1]
Conditions	Cone and plate viscometry	Falling or rolling sphere viscometry
293.15 K	–	13.86 ± 2
298.15 K	12.53 ± 4	11.44 ± 2
303.15 K	–	9.55 ± 2
308.15 K	–	8.05 ± 2
313.15 K	–	6.86 ± 2
318.15 K	–	5.9 ± 2
323.15 K	–	5.11 ± 2
328.15 K	–	4.48 ± 2
333.15 K	–	3.95
338.15 K	–	3.5
343.15 K	–	3.12

Conditions	mass density, [1] [kg/m3]	refractive index, [2]	speed of sound, [1] [m/s]
293.15 K	849.82 ± 4.1	1.4432 ± 0.0014	1353.3 ± 5.4
298.15 K	846.21 ± 4.1	1.4412 ± 0.0014	1335.7 ± 5.4
303.15 K	842.59 ± 4.1	1.4395 ± 0.0014	1317.8 ± 5.4
308.15 K	838.96 ± 4.1	1.4375 ± 0.0014	1300.1 ± 5.4
313.15 K	835.33 ± 4	1.4355 ± 0.0014	1282.2 ± 5.4
318.15 K	831.69 ± 4	1.4336 ± 0.0014	1264.9 ± 5.4
323.15 K	828.04 ± 4	1.4315 ± 0.0014	1247.7 ± 5.4
328.15 K	824.38 ± 4	1.4297 ± 0.0014	1230.6 ± 5.4
333.15 K	820.72 ± 3.9	1.4278 ± 0.0014	1213.7 ± 5.4
338.15 K	817.03 ± 3.9	1.4258 ± 0.0014	1196.9 ± 5.4
343.15 K	813.33 ± 3.9	1.4238 ± 0.0014	1180.3 ± 5.4

CCCCCCCC(=O)[O-].CCCCCC[NH+](CCCCCC)CCCCCC [trihexylammonium octanoate]
viscosity [mPa·s], [1]
Conditions	Cone and plate viscometry	Falling or rolling sphere viscometry
293.15 K	–	17.02 ± 2.1
298.15 K	15.9 ± 4	13.93 ± 2
303.15 K	–	11.55 ± 2
308.15 K	–	9.68 ± 2
313.15 K	–	8.21 ± 2
318.15 K	–	7.02 ± 2
323.15 K	–	6.06 ± 2
328.15 K	–	5.27 ± 2
333.15 K	–	4.62 ± 2
338.15 K	–	4.1 ± 2
343.15 K	–	3.65

Conditions	mass density, [1] [kg/m3]	refractive index, [2]	speed of sound, [1] [m/s]
293.15 K	851.2 ± 4.1	1.4459 ± 0.0014	1365.7 ± 5.4
298.15 K	847.63 ± 4.1	1.4441 ± 0.0014	1347.7 ± 5.4
303.15 K	844.06 ± 4.1	1.4419 ± 0.0014	1329.8 ± 5.4
308.15 K	840.48 ± 4.1	1.4399 ± 0.0014	1312.2 ± 5.4
313.15 K	836.9 ± 4	1.4381 ± 0.0014	1294.7 ± 5.4
318.15 K	833.31 ± 4	1.4359 ± 0.0014	1277.4 ± 5.4
323.15 K	829.72 ± 4	1.4341 ± 0.0014	1260.2 ± 5.4
328.15 K	826.11 ± 4	1.4322 ± 0.0014	1243.2 ± 5.4
333.15 K	822.5 ± 4	1.4299 ± 0.0014	1226.5 ± 5.4
338.15 K	818.87 ± 3.9	1.4278 ± 0.0014	1209.9 ± 5.4
343.15 K	815.25 ± 3.9	1.4258 ± 0.0014	1194 ± 5.4

CCCC(=O)[O-].CCCCCCCC[NH+](CCCCCCCC)CCCCCCCC [trioctylammonium butanoate]
viscosity [mPa·s], [1]
Conditions	Cone and plate viscometry	Falling or rolling sphere viscometry
293.15 K	–	17.82 ± 2.1
298.15 K	16.03 ± 4	14.55 ± 2
303.15 K	–	12.06 ± 2
308.15 K	–	10.09 ± 2
313.15 K	–	8.55 ± 2
318.15 K	–	7.3 ± 2
323.15 K	–	6.3 ± 2
328.15 K	–	5.49 ± 2
333.15 K	–	4.82 ± 2
338.15 K	–	4.28 ± 2
343.15 K	–	3.82

Conditions	mass density, [1] [kg/m3]	refractive index, [2]	speed of sound, [1] [m/s]
293.15 K	845.71 ± 4.1	1.4474 ± 0.0014	1377.6 ± 5.4
298.15 K	842.19 ± 4.1	1.4456 ± 0.0014	1359.6 ± 5.4
303.15 K	838.68 ± 4.1	1.4437 ± 0.0014	1341.8 ± 5.4
308.15 K	835.16 ± 4	1.4417 ± 0.0014	1324.2 ± 5.4
313.15 K	831.64 ± 4	1.4395 ± 0.0014	1306.8 ± 5.4
318.15 K	828.12 ± 4	1.4376 ± 0.0014	1289.6 ± 5.4
323.15 K	824.59 ± 4	1.4356 ± 0.0014	1272.5 ± 5.4
328.15 K	821.05 ± 3.9	1.4339 ± 0.0014	1255.6 ± 5.4
333.15 K	817.51 ± 3.9	1.4319 ± 0.0014	1239 ± 5.4
338.15 K	813.96 ± 3.9	1.43 ± 0.0014	1222.5 ± 5.4
343.15 K	810.41 ± 3.9	1.428 ± 0.0014	1206.8 ± 5.4

CCCCCC(=O)[O-].CCCCCCCC[NH+](CCCCCCCC)CCCCCCCC [trioctylammonium hexanoate]
viscosity [mPa·s], [1]
Conditions	Cone and plate viscometry	Falling or rolling sphere viscometry
293.15 K	–	20.58 ± 2.1
298.15 K	20.59 ± 4	16.72 ± 2.1
303.15 K	–	13.76 ± 2
308.15 K	–	11.47 ± 2
313.15 K	–	9.64 ± 2
318.15 K	–	8.19 ± 2
323.15 K	–	7.04 ± 2
328.15 K	–	6.09 ± 2
333.15 K	–	5.32 ± 2
338.15 K	–	4.67 ± 2
343.15 K	–	4.14 ± 2

Conditions	mass density, [1] [kg/m3]	refractive index, [2]	speed of sound, [1] [m/s]
293.15 K	848.02 ± 4.1	1.4489 ± 0.0014	1384 ± 5.4
298.15 K	844.54 ± 4.1	1.4469 ± 0.0014	1366.2 ± 5.4
303.15 K	841.06 ± 4.1	1.4451 ± 0.0014	1348.5 ± 5.4
308.15 K	837.58 ± 4	1.4432 ± 0.0014	1331 ± 5.4
313.15 K	834.1 ± 4	1.4413 ± 0.0014	1313.8 ± 5.4
318.15 K	830.61 ± 4	1.4394 ± 0.0014	1296.6 ± 5.4
323.15 K	827.12 ± 4	1.4375 ± 0.0014	1279.7 ± 5.4
328.15 K	823.62 ± 4	1.4353 ± 0.0014	1262.9 ± 5.4
333.15 K	820.12 ± 3.9	1.4336 ± 0.0014	1246.4 ± 5.4
338.15 K	816.62 ± 3.9	1.4316 ± 0.0014	1230.1 ± 5.4
343.15 K	813.12 ± 3.9	1.4294 ± 0.0014	1214.5 ± 5.4

CCCCCC(=O)[O-].CCCCCCCC[NH+](CCCCCCCC)CCCCCCCC [trioctylammonium hexanoate] + O
Conditions	mass density, [4] [kg/m3]	refractive index, [3]	speed of sound, [4] [m/s]	viscosity, [4] [mPa·s]
w2 = 0.00078	844.54 ± 2.1	1.4469 ± 0.0011	1366.2 ± 2.8	16.72 ± 2
w2 = 0.001285	844.88 ± 2.1	–	1366.9 ± 2.8	15.89 ± 2
w2 = 0.001301	–	1.4465 ± 0.0011	–	–
w2 = 0.002315	845.44 ± 2.1	–	1367.8 ± 2.8	14.49 ± 2
w2 = 0.002627	–	1.4458 ± 0.0011	–	–
w2 = 0.003049	–	1.4455 ± 0.0011	–	–
w2 = 0.003128	845.81 ± 2.1	–	1368.8 ± 2.8	13.68 ± 2

CCCCCCCC(=O)[O-].CCCCCCCC[NH+](CCCCCCCC)CCCCCCCC [trioctylammonium octanoate]
viscosity [mPa·s], [1]
Conditions	Cone and plate viscometry	Falling or rolling sphere viscometry
293.15 K	–	25.02 ± 2.1
298.15 K	25.07 ± 4.1	20.3 ± 2.1
303.15 K	–	16.63 ± 2.1
308.15 K	–	13.85 ± 2
313.15 K	–	11.6 ± 2
318.15 K	–	9.84 ± 2
323.15 K	–	8.38 ± 2
328.15 K	–	7.26 ± 2
333.15 K	–	6.33 ± 2
338.15 K	–	5.54 ± 2
343.15 K	–	4.92 ± 2

Conditions	mass density, [1] [kg/m3]	refractive index, [2]	speed of sound, [1] [m/s]
293.15 K	849.68 ± 4.1	1.4505 ± 0.0014	1393.1 ± 5.4
298.15 K	846.22 ± 4.1	1.4484 ± 0.0014	1375.3 ± 5.4
303.15 K	842.77 ± 4.1	1.4464 ± 0.0014	1357.6 ± 5.4
308.15 K	839.31 ± 4.1	1.4447 ± 0.0014	1340.1 ± 5.4
313.15 K	835.85 ± 4	1.4426 ± 0.0014	1322.8 ± 5.4
318.15 K	832.38 ± 4	1.4406 ± 0.0014	1305.7 ± 5.4
323.15 K	828.91 ± 4	1.4389 ± 0.0014	1288.8 ± 5.4
328.15 K	825.44 ± 4	1.4369 ± 0.0014	1272 ± 5.4
333.15 K	821.95 ± 4	1.4348 ± 0.0014	1255.5 ± 5.4
338.15 K	818.47 ± 3.9	1.4329 ± 0.0014	1239.2 ± 5.4
343.15 K	815.03 ± 3.9	1.4309 ± 0.0014	1223.7 ± 5.4

Reference: the NIST ThermoML archive (doi:10.1016/j.jct.2019.02.015)
